Where two headings read alike, the source gives them in different places.
What was measured:
[1] = Hepatocyte metabolite identification (rat); type: in vitro ADME; conditions: rat hepatocytes, 4 h incubation
Description: (§1) Prior to full characterization of deuterated analogues 3 and 5, they were incubated in rat, dog, monkey, and human hepatocytes, along with 1, to determine the amount of parent remaining, as well as the degree of undesired oxidative metabolites 2, 4, and 6 (Figure 2). […] For the gem-dideutero congener 3, metabolic stability was improved in vitro. […] Thus, in hepatocytes in vitro, the kinetic isotope effect engendered greater metabolic stability of the labile hot spot on the lactam. It remained to be seen if this effect would translate in vivo, but we first had to assess the impact of the deuterated analogues on molecular pharmacology, in vitro DMPK, standard low-dose in vivo DMPK and, if warranted, in vivo efficacy in a rat novel object recognition (NOR) behavioral assay.

[2] = biological target: T1, M1 (Homo sapiens, UniProt P11229); experiment: Calcium mobilization, human M1 CHO cells (agonist and PAM modes); type: cell-based; conditions: for M1 agonism: in words
T1 construct: expressed in transfected cells
T1 sequence (P11229 1-460): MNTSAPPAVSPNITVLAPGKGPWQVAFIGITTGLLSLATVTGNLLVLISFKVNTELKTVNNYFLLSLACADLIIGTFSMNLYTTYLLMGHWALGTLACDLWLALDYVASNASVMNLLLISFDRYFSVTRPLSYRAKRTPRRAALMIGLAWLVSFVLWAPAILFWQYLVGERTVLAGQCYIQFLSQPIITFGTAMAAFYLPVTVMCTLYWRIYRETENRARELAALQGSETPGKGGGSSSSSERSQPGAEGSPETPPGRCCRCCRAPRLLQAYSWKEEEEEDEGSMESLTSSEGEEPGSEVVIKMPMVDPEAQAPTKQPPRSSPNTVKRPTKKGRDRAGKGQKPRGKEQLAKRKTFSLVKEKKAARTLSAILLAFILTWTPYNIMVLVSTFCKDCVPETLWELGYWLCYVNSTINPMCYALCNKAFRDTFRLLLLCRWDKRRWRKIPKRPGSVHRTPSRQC

[3] = Hepatocyte metabolite identification (dog); type: in vitro ADME; conditions: dog hepatocytes, 4 h incubation
Description: as §1

[4] = Predicted hepatic clearance, hepatic microsomes (human); type: in vitro ADME
Description: (§2) After a 5 min preincubation, the reaction was initiated by the addition of NADPH (1 mM). At selected time intervals (0, 3, 7, 15, 25, and 45 min), aliquots were taken and subsequently placed into a 96-well plate containing cold acetonitrile with internal standard (50 ng/mL carbamazepine). Plates were then centrifuged at 3000 rcf (4 °C) for 10 min, and the supernatant was transferred to a separate 96-well plate and diluted 1:1 with water for LC/MS/MS analysis. The in vitro half-life ( 1/2, min, Eq. 1), intrinsic clearance (CLint, mL/min/kg, Eq. 2), and subsequent predicted hepatic clearance (CLhep, mL/min/kg, Eq. 3) was determined employing the […]
(§3) where k represents the slope from linear regression analysis of the natural log percent remaining of a test compound as a function of incubation time […]
(§4) (2) CLint = in vitroT1/2 x mg microsomes x gram liver x kg body wt ascale-up factors: of 20 (human) or 45 (rat) […]
(§5) where Qh (hepatic blood flow, mL/min/kg) is 21 (human) or 70 (rat).
(§6) LC/MS/MS Bioanalysis of Samples from Plasma Protein Binding and Intrinsic Clearance […]
(§7) Samples were analyzed on a Thermo Electron TSQ Quantum Ultra triple quad mass spectrometer (San Jose, CA) via electrospray ionization (ESI) with two Themo Electron Accella pumps (San Jose, CA), and a Leap Technologies CTC PAL autosampler (Carrboro, NC). Analytes were separated by gradient elution on a dual column system with two Thermo Hypersil Gold (2.1 x 30 mm, 1.9 µm) columns (San Jose, CA) thermostated at 40 °C. HPLC mobile phase A was 0.1% formic acid in water and mobile phase B was 0.1% formic acid in acetonitrile. The gradient started […]
(§8) for 0.2 min; returned to 10% B in 0.1 min. The total run time was 1.3 min and the HPLC flow rate was 0.8 mL/min. While pump 1 ran the gradient method, pump 2 equilibrated the alternate column isocratically at 10% B. Compound optimization, data collection, and processing was performed using Thermo Electron's QuickQuan software (v2.3) and Xcalibur (v2.0.7 SP1).
(§9) In vivo DMPK experimental:
(§10) Determination of brain to plasma ratio: […]

[5] = Predicted hepatic clearance, hepatic microsomes (rat); type: in vitro ADME
Description: as §2, §3, §4, §5, §6, §7, §8, §9, §10

[6] = Hepatocyte metabolite identification (human); type: in vitro ADME; conditions: human hepatocytes, 4 h incubation
Description: as §1

[7] = PAM mode, read-out: hM1 PAM EC50
[8] = agonist mode, read-out: hM1 Agonist EC50

SMILES | % Total Peak Area, parent remaining [1] [%] | hM1 PAM AChmax (%) [2] [%] | EC50 [2, 7] [nM] | EC50 [2, 8] [nM] | M1 agonism [2] | hM1 PAM AChmax (%) (pEC50 line) ([2]; mean ± spread) | % Total Peak Area, parent remaining [3] [%] | Predicted CLhep [4] [mL/min/kg] | Predicted CLhep [5] [mL/min/kg] | % Total Peak Area, parent remaining [6] [%] | EC50 ([2]; mean ± spread, n in cell, read-out: hM1 PAM pEC50 (converted)) [nM]
[2H]C1([2H])c2ncccc2C(=O)N1Cc1c(F)cc(-c2cccc3nn(C)cc23)cc1F [compound 3] | 87.0 | 81 | 624 | > 30000 | minimal M1 agonism | 78±2.2 | 91.9 | 10.6 | 41.3 | 82.6 | 
[2H]C1([2H])c2ncccc2C(=O)N1Cc1c(F)cc(-c2cccc3nn(C([2H])([2H])[2H])cc23)cc1F [compound 5] | 87.7 | 80 | 192 | > 30000 | minimal M1 agonism | 82±1.8 | 87.8 | 8.0 | 35.9 | 92.3 | 182
Cn1cc2c(-c3cc(F)c(CN4Cc5ncccc5C4=O)c(F)c3)cccc2n1 [compound 1] | 76.3 | 80 | 492 | > 30000 |  | 71±9.9 | 71.7 | 1.3 | 5.7 | 65.1 | 

— article PMC12006963, “Application of Deuterium in an M1 Positive Allosteric Modulator Back-Up Program: The Discovery of VU6045422” (ACS Chemical Neuroscience, 2025)
